# Experimental data as given in ChEMBL document CHEMBL3872213, “Synthesis and biological activity of furoxan derivatives against Mycobacterium tuberculosis” (Eur J Med Chem, 2016).
# Columns and labels:
# [1] = system: Mycobacterium tuberculosis; test: Antitubercular activity against multi-drug resistant Mycobacterium tuberculosis; type: functional
# [2] = system: Mycobacterium tuberculosis; test: Antitubercular activity against clinical isolates of isoniazid/rifampicin/streptomycin/ethambutal resistant Mycobacterium tuberculosis after 7 days by REMA method; type: functional; conditions: 168 h
smiles,measurement,setting,value
O=C(N/N=C/c1ccc(O)cc1)c1ccncc1,MIC90,[1],> 62 µM
O=C(N/N=C/c1cccc(Oc2no[n+]([O-])c2S(=O)(=O)c2ccccc2)c1)c1ccncc1,MIC90,[2],21.3 µM
O=C(N/N=C/c1ccc(Oc2no[n+]([O-])c2-c2ccccc2)cc1)c1ccncc1,MIC90,[2],24.3 µM
O=C(N/N=C/c1ccc(Oc2no[n+]([O-])c2S(=O)(=O)c2ccccc2)cc1)c1ccncc1,MIC90,[2],7 µM
O=C(N/N=C/c1ccccc1Oc1no[n+]([O-])c1S(=O)(=O)c1ccccc1)c1ccncc1,MIC90,[2],50 µM
